Experiments:
[1] = Clearance in rat at 2 mg/kg, iv; format: ADME, organism-based; details: in vivo
[2] = Half life in rat at 1 mg/kg, iv; format: ADME, organism-based; details: in vivo
[3] = Clearance in dog at 1 mg/kg, iv; format: ADME, organism-based, Canis lupus familiaris; details: in vivo
[4] = AUC in rat at 10 mg/kg, po; format: ADME, organism-based; set-up: dose 10 mg/kg, route po; details: in vivo
[5] = Half life in dog at 1 mg/kg, iv; format: ADME, organism-based, Canis lupus familiaris; details: in vivo
[6] = tested on: Human immunodeficiency virus 1; experiment: Ratio of EC50 for antiviral activity against HIV1-T13572 to EC50 for antiviral activity against wild type HIV1 r13205; format: functional
[7] = tested on: Human immunodeficiency virus 1; experiment: Antiviral activity against HIV1 T21055 infected in human MT4 cells expressing LTR and EGFP assessed as inhibition of virus-induced cytopathic effect by fluorescence microscopic analysis; format: functional, organism-based; details: Human immunodeficiency virus 1, T21055, MT4
[8] = tested on: Human immunodeficiency virus 1; experiment: Antiviral activity against HIV1 T13572 infected in human MT4 cells expressing LTR and EGFP assessed as inhibition of virus-induced cytopathic effect by fluorescence microscopic analysis; format: functional, organism-based; details: Human immunodeficiency virus 1, T13572, MT4
[9] = tested on: Human immunodeficiency virus 1; experiment: Antiviral activity against HIV1 T13632 infected in human MT4 cells expressing LTR and EGFP assessed as inhibition of virus-induced cytopathic effect by fluorescence microscopic analysis; format: functional, organism-based; details: Human immunodeficiency virus 1, T13632, MT4
[10] = tested on: Human immunodeficiency virus 1; experiment: Ratio of EC50 for antiviral activity against HIV1-T21217 to EC50 for antiviral activity against wild type HIV1 r13205; format: functional
[11] = tested on: Human immunodeficiency virus 1; experiment: Ratio of EC50 for antiviral activity against HIV1-T13717 to EC50 for antiviral activity against wild type HIV1 r13205; format: functional
[12] = tested on: Human immunodeficiency virus 1; experiment: Antiviral activity against wild type HIV1 r13205 infected in human MT4 cells expressing LTR and EGFP assessed as inhibition of virus-induced cytopathic effect by fluorescence microscopic analysis; format: functional, organism-based; details: Human immunodeficiency virus 1, r13205, MT4
[13] = tested on: Human immunodeficiency virus 1; experiment: Ratio of EC50 for antiviral activity against HIV1-T13436 to EC50 for antiviral activity against wild type HIV1 r13205; format: functional
[14] = tested on: Human immunodeficiency virus 1; experiment: Ratio of EC50 for antiviral activity against HIV1-T21055 to EC50 for antiviral activity against wild type HIV1 r13205; format: functional
[15] = tested on: Human immunodeficiency virus 1; experiment: Ratio of EC50 for antiviral activity against HIV1-T13632 to EC50 for antiviral activity against wild type HIV1 r13205; format: functional
[16] = tested on: Human immunodeficiency virus 1; experiment: Antiviral activity against HIV1 T13717 infected in human MT4 cells expressing LTR and EGFP assessed as inhibition of virus-induced cytopathic effect by fluorescence microscopic analysis; format: functional, organism-based; details: Human immunodeficiency virus 1, T13717, MT4
[17] = tested on: Human immunodeficiency virus 1; experiment: Ratio of EC50 for antiviral activity against HIV1-T20760 to EC50 for antiviral activity against wild type HIV1 r13205; format: functional
[18] = tested on: Human immunodeficiency virus 1; experiment: Antiviral activity against HIV1 T20760 infected in human MT4 cells expressing LTR and EGFP assessed as inhibition of virus-induced cytopathic effect by fluorescence microscopic analysis; format: functional, organism-based; details: Human immunodeficiency virus 1, T20760, MT4
[19] = tested on: Human immunodeficiency virus 1; experiment: Antiviral activity against HIV1 T21217 infected in human MT4 cells expressing LTR and EGFP assessed as inhibition of virus-induced cytopathic effect by fluorescence microscopic analysis; format: functional, organism-based; details: Human immunodeficiency virus 1, T21217, MT4
[20] = tested on: Human immunodeficiency virus 1; experiment: Antiviral activity against HIV1 T13436 infected in human MT4 cells expressing LTR and EGFP assessed as inhibition of virus-induced cytopathic effect by fluorescence microscopic analysis; format: functional, organism-based; details: Human immunodeficiency virus 1, T13436, MT4
[21] = tested on: Human immunodeficiency virus 1; experiment: Antiviral activity against HIV1 LAI infected in human MT2 cells assessed as inhibition of virus-induced cytopathic effect by MTT assay; format: functional, organism-based; details: Human immunodeficiency virus 1, LAI
[22] = biological target: T1, Human immunodeficiency virus type 1 protease (Human immunodeficiency virus 1, UniProt Q72874); experiment: Binding affinity to HIV1 recombinant wild type protease expressed in Escherichia coli BL21(DE3) assessed as inhibition constant
[23] = Apparent permeability in rat astrocytes/rat pericytes/monkey endothelial cells triple cell co-culture system incubated for 30 mins by spectrophotometric analysis; format: ADME, cell-based
[24] = tested on: Human immunodeficiency virus 1; experiment: Antiviral activity against wild type HIV1 ERS104pre infected in human PBMC cells assessed as inhibition of virus-induced cytopathic effect measured after 7 days by MTT assay; format: functional, organism-based; details: Human immunodeficiency virus 1, ERS104pre, 168 h
[25] = tested on: Human immunodeficiency virus 1; experiment: Ratio of EC50 for antiviral activity against darunavir-resistant HIV1 10P to EC50 for antiviral activity against wild type HIV1 ERS104pre; format: functional
[26] = tested on: Human immunodeficiency virus 1; experiment: Ratio of EC50 for antiviral activity against darunavir-resistant HIV1 20P to EC50 for antiviral activity against wild type HIV1 ERS104pre; format: functional
[27] = biological target: T1, Human immunodeficiency virus type 1 protease; experiment: Binding affinity to HIV1 protease assessed as inhibition constant
[28] = tested on: Human immunodeficiency virus 1; experiment: Ratio of EC50 for antiviral activity against HIV1-MM to EC50 for antiviral activity against wild type HIV1 ERS104pre; format: functional
[29] = tested on: Human immunodeficiency virus 1; experiment: Antiviral activity against multidrug-resistant HIV1-TM infected in phytohemagglutinin-activated human PBMC cells assessed as inhibition of virus-induced cytopathic effect measured after 7 days by MTT assay; format: functional, organism-based; details: Human immunodeficiency virus 1, TM, 168 h
[30] = tested on: Human immunodeficiency virus 1; experiment: Antiviral activity against multidrug-resistant HIV1-JSL infected in phytohemagglutinin-activated human PBMC cells assessed as inhibition of virus-induced cytopathic effect measured after 7 days by MTT assay; format: functional, organism-based; details: Human immunodeficiency virus 1, JSL, 168 h
[31] = tested on: Human immunodeficiency virus 1; experiment: Antiviral activity against multidrug-resistant HIV1-B infected in phytohemagglutinin-activated human PBMC cells assessed as inhibition of virus-induced cytopathic effect measured after 7 days by MTT assay; format: functional, organism-based; details: Human immunodeficiency virus 1, B, 168 h
[32] = tested on: Human immunodeficiency virus 1; experiment: Ratio of EC50 for antiviral activity against HIV1-C to EC50 for antiviral activity against wild type HIV1 ERS104pre; format: functional
[33] = tested on: Human immunodeficiency virus 1; experiment: Ratio of EC50 for antiviral activity against HIV1-G to EC50 for antiviral activity against wild type HIV1 ERS104pre; format: functional
[34] = tested on: Human immunodeficiency virus 1; experiment: Antiviral activity against multidrug-resistant HIV1-G infected in phytohemagglutinin-activated human PBMC cells assessed as inhibition of virus-induced cytopathic effect measured after 7 days by MTT assay; format: functional, organism-based; details: Human immunodeficiency virus 1, G, 168 h
[35] = tested on: Human immunodeficiency virus 1; experiment: Ratio of EC50 for antiviral activity against HIV1-JSL to EC50 for antiviral activity against wild type HIV1 ERS104pre; format: functional
[36] = tested on: Human immunodeficiency virus 1; experiment: Ratio of EC50 for antiviral activity against HIV1-TM to EC50 for antiviral activity against wild type HIV1 ERS104pre; format: functional
[37] = tested on: Human immunodeficiency virus 1; experiment: Antiviral activity against darunavir-resistant HIV1 10P infected in phytohemagglutinin-activated human PBMC cells assessed as inhibition of virus-induced cytopathic effect measured after 7 days by MTT assay; format: functional, organism-based; details: Human immunodeficiency virus 1, 10P, 168 h
[38] = tested on: Human immunodeficiency virus 1; experiment: Ratio of EC50 for antiviral activity against HIV1-B to EC50 for antiviral activity against wild type HIV1 ERS104pre; format: functional
[39] = tested on: Human immunodeficiency virus 1; experiment: Antiviral activity against multidrug-resistant HIV1-MM infected in phytohemagglutinin-activated human PBMC cells assessed as inhibition of virus-induced cytopathic effect measured after 7 days by MTT assay; format: functional, organism-based; details: Human immunodeficiency virus 1, MM, 168 h
[40] = tested on: Human immunodeficiency virus 1; experiment: Antiviral activity against multidrug-resistant HIV1-C infected in phytohemagglutinin-activated human PBMC cells assessed as inhibition of virus-induced cytopathic effect measured after 7 days by MTT assay; format: functional, organism-based; details: Human immunodeficiency virus 1, C, 168 h
[41] = tested on: Human immunodeficiency virus 1; experiment: Antiviral activity against darunavir-resistant HIV1 20P infected in phytohemagglutinin-activated human PBMC cells assessed as inhibition of virus-induced cytopathic effect measured after 7 days by MTT assay; format: functional, organism-based; details: Human immunodeficiency virus 1, 20P, 168 h
[42] = Lipophilicity, logP of the compound in Octanol/water by shake-flask method; format: physicochemical
[43] = Lipophilicity, logD of the compound in Octanol/buffer by shake-flask method; format: physicochemical

SMILES | EC50 [7] [nM] | EC50 [8] [nM] | EC50 [9] [nM] | EC50 [12] [nM] | EC50 [16] [nM] | EC50 [18] [nM] | EC50 [19] [nM] | EC50 [20] [nM] | EC50 [24] [nM] | Ratio EC50 [25] | Ratio EC50 [26] | Ratio EC50 [28] | EC50 [29] [nM] | EC50 [30] [nM] | EC50 [31] [nM] | Ratio EC50 [32] | EC50 [34] [nM] | EC50 [37] [nM] | EC50 [40] [nM] | EC50 [41] [nM] | other results
CC[C@@H](CCC[C@@H](CO)N(CCC(C)C)S(=O)(=O)c1ccc(N)cc1)NC(=O)[C@@H](NC(=O)OC)C(c1ccccc1)c1ccccc1 |  |  |  |  |  |  |  |  |  |  |  |  |  |  |  |  |  |  |  |  | clearance [1]: 48.5 mL/min/kg; half-life [2]: 2.13 h; clearance [3]: 10.1 mL/min/kg; AUC [4]: 1.17 µM·h; half-life [5]: 7.4 h
CC(C)CN(C[C@@H](O)[C@H](Cc1ccccc1)NC(=O)O[C@H]1CO[C@H]2OCC[C@H]21)S(=O)(=O)c1ccc2sc(NC3CCN(C4CCCC4)CC3)nc2c1 | 308 | 1.5 | 42 | 26 | 68 | 65 | 312 | 5.1 |  |  |  |  |  |  |  |  |  |  |  |  | Ratio EC50 [6]: 0.058; Ratio EC50 [10]: 12; Ratio EC50 [11]: 2.6; Ratio EC50 [13]: 0.2; Ratio EC50 [14]: 12; Ratio EC50 [15]: 1.6; Ratio EC50 [17]: 2.5
CC(C)CN(C[C@@H](O)[C@H](Cc1ccccc1)NC(=O)O[C@H]1CO[C@H]2OCC[C@H]21)S(=O)(=O)c1ccc(C(N)=O)cc1 |  |  |  |  |  |  |  |  |  |  |  |  |  |  |  |  |  |  |  |  | EC50 [21]: 93 nM; Ki [22]: 0.0089 nM
Cn1c(=O)c2c(ncn2C)n(C)c1=O [CAFFEINE] |  |  |  |  |  |  |  |  |  |  |  |  |  |  |  |  |  |  |  |  | Papp at 0.5 h [23]: 100 ×10⁻⁶ cm/s
COc1ccc(S(=O)(=O)N(CC(C)C)C[C@@H](O)[C@H](Cc2ccccc2)NC(=O)O[C@H]2CO[C@H]3O[C@@H]4OCC[C@@H]4[C@H]32)cc1 |  |  |  |  |  |  |  |  | 0.6 | 9 | 50 | 4 | 2.1 | 2.5 | 3.4 | 1 | 2.6 | 5.6 | 0.8 | 30 | Ki [27]: 0.0059 nM; Ratio EC50 [33]: 4; Ratio EC50 [35]: 4; Ratio EC50 [36]: 4; Ratio EC50 [38]: 6; EC50 [39]: 2.5 nM
CC(C)CN(C[C@@H](O)[C@H](Cc1ccccc1)NC(=O)O[C@H]1CO[C@H]2OCC[C@H]21)S(=O)(=O)c1ccc(C(=O)O)cc1 |  |  |  |  |  |  |  |  |  |  |  |  |  |  |  |  |  |  |  |  | EC50 [21]: > 10000 nM; Ki [22]: 0.0127 nM
COC(=O)N[C@H](C(=O)N[C@@H](Cc1ccccc1)[C@@H](O)CN(Cc1ccc(-c2ccccn2)cc1)NC(=O)[C@@H](NC(=O)OC)C(C)(C)C)C(C)(C)C [ATAZANAVIR] |  |  |  |  |  |  |  |  | 2.1 | 77 | >370 | 20 | 56 | > 211 | 450 | 14 | 19.4 | 323 | 38.8 | > 1000 | Ratio EC50 [33]: 7; Ratio EC50 [35]: >78; Ratio EC50 [36]: 24; Ratio EC50 [38]: 174; EC50 [39]: 81 nM
CC(C)CN(C[C@@H](O)[C@H](Cc1ccccc1)NC(=O)O[C@H]1CO[C@H]2OCC[C@H]21)S(=O)(=O)c1ccc(N)cc1 | 122 | 234 | 624 | 22 | 670 | 39 | 84 | 49 | 3.8 | 11 | 64 | 3 | 4.3 | > 25 | 21 | 2 | 7 | 43.4 | 5 | 255 | Ratio EC50 [6]: 11; Ratio EC50 [33]: 2; Ratio EC50 [10]: 3.8; Ratio EC50 [35]: 6; Ratio EC50 [11]: 30; Ratio EC50 [36]: 1; Ratio EC50 [38]: 7; logP [42]: -0.63; EC50 [39]: 10 nM; Ratio EC50 [13]: 2.2; logD [43]: -1.03; Ratio EC50 [14]: 5.5; Ratio EC50 [15]: 28; Ratio EC50 [17]: 1.8
Cc1cccc(C)c1OCC(=O)N[C@@H](Cc1ccccc1)[C@@H](O)C[C@H](Cc1ccccc1)NC(=O)[C@H](C(C)C)N1CCCNC1=O [LOPINAVIR] | 426 | 511 | 1600 | 28 | 1900 | 112 | 198 | 263 | 7 |  |  |  |  | > 700 | > 300 |  | > 160 | > 1000 | > 436 | > 1000 | 
